Patent US20240300987A1, “TRAP1 INHIBITOR AND USE THEREOF” (SMARTIN BIO INC., priority 2021, published 2024)
Blank lines part the entries; values can stand above or below the molecule they belong to.

Columns and labels:
[1] = molecular target: T1, human full-length TRAP1 protein (Homo sapiens, UniProt Q12931); test: Fluorescence polarization (FP) analysis using SB-TM2 probe (client-binding site); settings: for IC50: FP analysis using SB-TM2; for Activity compared to that of SMX: TRAP1 binding, relative to SMX of the same table
T1 construct: containing human full-length TRAP1 protein (400 nM); hexahistidine tag followed by TEV protease cleavage site (N, cleaved yes); made in house; host or cells: E. coli BL21 (DE3)
T1 sequence (Q12931 60-704): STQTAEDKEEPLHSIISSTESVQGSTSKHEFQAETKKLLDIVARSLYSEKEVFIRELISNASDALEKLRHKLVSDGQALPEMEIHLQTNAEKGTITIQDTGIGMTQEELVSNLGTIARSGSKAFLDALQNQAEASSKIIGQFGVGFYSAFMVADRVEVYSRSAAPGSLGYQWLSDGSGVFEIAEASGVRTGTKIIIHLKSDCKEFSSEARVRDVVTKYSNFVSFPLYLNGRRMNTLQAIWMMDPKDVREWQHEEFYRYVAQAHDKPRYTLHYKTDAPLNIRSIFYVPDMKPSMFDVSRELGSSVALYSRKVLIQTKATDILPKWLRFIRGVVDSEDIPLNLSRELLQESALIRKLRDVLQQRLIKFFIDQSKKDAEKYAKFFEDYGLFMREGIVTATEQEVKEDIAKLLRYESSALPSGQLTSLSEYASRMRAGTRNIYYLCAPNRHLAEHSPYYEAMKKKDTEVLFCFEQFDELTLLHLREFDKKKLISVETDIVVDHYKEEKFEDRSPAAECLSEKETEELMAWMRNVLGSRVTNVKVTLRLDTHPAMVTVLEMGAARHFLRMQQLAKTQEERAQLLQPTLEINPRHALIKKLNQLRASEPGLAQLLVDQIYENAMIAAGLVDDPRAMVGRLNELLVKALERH
Experimental: The substance to be analyzed (at a final volume of 100 μL) was added to FP buffer ([…], 2.7 mM KCl, 4.3 mM Na2HPO4, 1.4 mM KH2PO4 (pH 7.3), 1 mM DTT, 2 mM MgCl2, and 0.1 mg/mL BSA) containing human full-length TRAP1 protein (400 nM) and SB-TM2 probe (100 nM) and then reacted at room temperature for 1 hour (96-well plate). Using a SYNERGY NEO microplate reader, FP was measured at an excitation wavelength set to 440 nm and an emission wavelength set to 500 nm.

[2] = molecular target: T2, TRAP1 (Homo sapiens, UniProt Q12931); test: ATPase activity assay (PiColorLock Gold Phosphate Detection Kit); format: biochemical; parameters: hexahistidine tag followed by TEV protease cleavage site (N, cleaved yes); made in house; host or cells: E. coli BL21 (DE3); settings: result in words
T2 sequence (Q12931 60-704): T1 sequence (Q12931 60-704)
Experimental: The ATPase activity of TRAP1 was measured using the PiColorLock Gold Phosphate Detection Kit (Abcam). Then, 0.5 µM TRAP1 (wild-type or mutation) was pre-incubated along with inhibitors at various concentrations for 30 minutes and then incubated with 0.2 mM ATP at 37° C. for 3 hours in ATPase activity assay buffer containing 50 mM Tris-HCl, 20 mM KCl, and 6 mM MgCl (pH 7.4). Next, 20 µL of a mixture of a PiColorLock Gold reagent and an accelerator (100:1) was added to each sample (100 μL). After 5 minutes of incubation, 10 μL of a stabilizer was added to stop color development. Absorbance was measured at 620 nm using a microplate reader (Synergy NEO, BioTek). The background signal was normalized by subtracting the absorbance of unreacted samples.

[3] = system: HIF1α; test: Drug activity assay using MIO-M1 HRE/GFP cell line under hypoxia; format: cell-based; settings: for IC50: HIF1α inhibitory activity in MIO-M1 cells, 1% O2 24 hours; for Activity compared to that of SMX: HIF1α inhibition, relative to SMX of the same table
Experimental: After transfection (jetPRIME kit) of MIO-M1 Müller cells with 5HRE/GFP plasmid (Addgene, #46926), the cells transfected with the plasmid were selected using 1 mg/ml of G418 (Neomycin), a selectable marker. A stable cell line was constructed by selecting cells, growing in a colony form, from single cells. The prepared MIO-M1-HRE/GFP stable cell line was dispensed into a 96-well plate and treated with drugs at different concentrations the next day. After being exposed to a hypoxic environment (1% O2) for 24 hours, the GFP (Ex/Em: 488/507) fluorescence signal was measured using a SYNERGY NEO microplate reader (BioTek Instrument). The relative fluorescence value was calculated on the basis of 100% of the negative control group.

[4] = Table 4, other synthetic compounds
[5] = MIO-M1, 24 h, Table 9, other synthetic compounds
[6] = Table 3, other synthetic compounds
[7] = MIO-M1, 24 h, Table 8, other synthetic compounds
[8] = Table 2, antioxidant-TPP conjugates
[9] = MIO-M1, 24 h, Table 6, alkyl-TPPs
[10] = MIO-M1, 24 h, Table 7, TPP-antioxidant conjugates

Compound: CC1(C)CC(NC(=O)C[P+](c2ccccc2)(c2ccccc2)c2ccccc2)CC(C)(C)N1[O] [Mito-TEMPO, reference compound]
- TRAP1 binding capacity (competitive binding with SB-TM2, CBS of TRAP1) ([1]; result in words): do not exhibit TRAP1 binding capacity

Compound: CC(C)NCCCn1c(Sc2cc3c(cc2I)OCO3)nc2c(N)ncnc21 [PU-H71, reference compound]
- TRAP1 ATPase activity with increasing concentration [2]: ATPase activity decreased with the increasing concentration

Compound: COc1c(Br)c(C)c(CCCCCCCCCC[P+](c2ccccc2)(c2ccccc2)c2ccccc2)c(OC)c1OC [SB-U005, (10-(3-Bromo-4,5,6-trimethoxy-2-methylphenyl)decyl)triphenylphosphonium]
- IC50 [1, 6]: 0.385 ± 0.0835 µM
- IC50 [3, 7]: 0.131 ± 0.0091 µM
- Activity compared to that of SMX ([3]; Table 8): 3.92

Compound: COc1c(Br)c(C)c(CCCCCCCCCC[P+](c2ccccc2)(c2ccccc2)c2ccccc2)c(OC)c1OC [SB-U011, (10-(3-Bromo-4,5,6-trimethoxy-2-methylphenyl)decyl)triphenylphosphonium]
- IC50 [1, 6]: 0.684 ± 0.0729 µM
- Activity compared to that of SMX ([1]; Table 3): 1.156
- IC50 ([3]; Table 8, other synthetic compounds): 0.0853 ± 0.0088 µM
- Activity compared to that of SMX ([3]; Table 8): 6.02
- TRAP1 ATPase activity with increasing concentration [2]: did not show a tendency that the ATPase activity decreased in a concentration-dependent manner

Compound: COc1c(C)c(CCCCCCCCCC[P+](c2ccccc2)(c2ccccc2)c2ccccc2)c(Br)c(OC)c1OC [SB-U012, (10-(2-Bromo-3,4,5-trimethoxy-6-methylphenyl)decyl)triphenylphosphonium]
- IC50 [1, 6]: 0.601 ± 0.0906 µM
- Activity compared to that of SMX ([1]; Table 3): 1.315
- IC50 [3, 7]: 0.177 ± 0.0088 µM
- Activity compared to that of SMX ([3]; Table 8): 2.90

Compound: COc1c(C)c(CCCCCCCCCC[P+](c2ccccc2)(c2ccccc2)c2ccccc2)c(OC)c(OC)c1OC [SB-U014, Triphenyl(10-(2,3,4,5-tetramethoxy-6-methylphenyl)decyl)phosphonium]
- IC50 [1, 4]: 0.805 ± 0.0994 µM
- IC50 [3, 5]: 0.0694 ± 0.0031 µM
- Activity compared to that of SMX ([3]; Table 9): 4.02

Compound: COC1=C(OC)C(=O)C(CCCCCCCCCC[P+](c2ccccc2)(c2ccccc2)c2ccccc2)=C(C)C1=O [SMX, (10-(4,5-Dimethoxy-2-methyl-3,6-dioxocyclohexadien-1-yl)decyl)triphenylphosphonium, reference compound]
- IC50 ([1]; Table 1, alkyl-TPPs): 0.623 ± 0.0375 µM
- Activity compared to that of SMX ([1]; Table 1): 1
- IC50 [1, 8]: 0.824 ± 0.0512 µM
- Activity compared to that of SMX ([1]; Table 2): 1
- IC50 [1, 6]: 0.791 ± 0.0512 µM
- Activity compared to that of SMX ([1]; Table 3): 1
- IC50 [1, 4]: 0.406 ± 0.0389 µM
- Activity compared to that of SMX ([1]; Table 4): 1
- IC50 [3, 9]: 0.468 ± 0.0151 µM
- IC50 [3, 10]: 0.327 ± 0.0229 µM
- IC50 [3, 7]: 0.514 ± 0.0552 µM
- IC50 [3, 5]: 0.279 ± 0.017 µM
- Activity compared to that of SMX ([3]; Table 6): 1
- Activity compared to that of SMX ([3]; Table 7): 1
- Activity compared to that of SMX ([3]; Table 8): 1
- Activity compared to that of SMX ([3]; Table 9): 1

More lines, main results first:

- IC50 [1, 4]: 2.97 ± 1.05 µM
- Activity compared to that of SMX ([1]; Table 4): 0.14
- IC50 [3, 5]: 0.0947 ± 0.0132 µM
Compound: c1ccc(CCCCCCCCCC[P+](c2ccccc2)(c2ccccc2)c2ccccc2)cc1 [SB-B001, Triphenyl(10-phenyldecyl)phosphonium]
- Activity compared to that of SMX ([3]; Table 9): 2.95

- IC50 [3, 5]: 0.0223 ± 0.001 µM
Compound: c1ccc([P+](CCCCCCCCCCC2CCCCC2)(c2ccccc2)c2ccccc2)cc1 [SB-B002, (10-Cyclohexyldecyl)triphenylphosphonium chloride]
- Activity compared to that of SMX ([3]; Table 9): 12.51

- IC50 [1, 4]: 0.166 ± 0.023 µM
- Activity compared to that of SMX ([1]; Table 4): 2.45
- IC50 [3, 5]: 0.0555 ± 0.0033 µM
Compound: CC1=C(CCCCCCCCCC[P+](c2ccccc2)(c2ccccc2)c2ccccc2)C(=O)c2ccccc2C1=O [SB-K001, (10-(3-Methyl-1,4-dioxo-1,4-dihydronaphthalen-2-yl)decyl)triphenylphosphonium]
- Activity compared to that of SMX ([3]; Table 9): 5.03

- IC50 [1, 6]: 0.909 ± 0.136 µM
- Activity compared to that of SMX ([1]; Table 3): 0.8701
- IC50 [3, 7]: 0.191 ± 0.0236 µM
Compound: COc1c(O)c(C)c(CCCCCCCCCC[P+](c2ccccc2)(c2ccccc2)c2ccccc2)c(Br)c1OC [SB-U009, (10-(2-Bromo-5-hydroxy-3,4-dimethoxy-6-methylphenyl)decyl)triphenylphosphonium]
- Activity compared to that of SMX ([3]; Table 8): 2.69

- IC50 [1, 8]: 0.696 ± 0.0554 µM
- IC50 [3, 10]: 0.183 ± 0.0091 µM
Compound: CC1=C(C)C(=O)C(CCCCCCCCCC[P+](c2ccccc2)(c2ccccc2)c2ccccc2)=CC1=O [SkQ1, (10-(4,5-Dimethyl-3,6-dioxocyclohexa-1,4-diene-1-yl)decyl)triphenylphosphonium, reference compound]
- Activity compared to that of SMX ([3]; Table 7): 1.79

- IC50 ([1]; Table 1, alkyl-TPPs): 18.8 ± 5.39 µM
- Activity compared to that of SMX ([1]; Table 1): 0.03
- IC50 [3, 9]: 1.43 µM
Compound: CCCCCC[P+](c1ccccc1)(c1ccccc1)c1ccccc1.[Br-] [TPP-6, hexyltriphenylphosphonium bromide, reference compound]
- Activity compared to that of SMX ([3]; Table 6): 0.33

- IC50 ([1]; Table 1, alkyl-TPPs): 2.57 ± 0.258 µM
- Activity compared to that of SMX ([1]; Table 1): 0.24
- IC50 [3, 9]: 0.643 ± 0.258 µM
Compound: CCCCCCCC[P+](c1ccccc1)(c1ccccc1)c1ccccc1 [TPP-8, Octyltriphenylphosphonium]
- TRAP1 binding capacity (competitive binding with SB-TM2, CBS of TRAP1) ([1]; result in words): competitive binding with SB-TM2 was confirmed to be enabled
- TRAP1 binding capacity (competitive binding with SB-TM2, CBS of TRAP1) ([1]; result in words, listed as octyl-TPP): competitive binding to SB-TM2 is confirmed to be enabled
- Activity compared to that of SMX ([3]; Table 6): 0.73

- IC50 ([1]; Table 1, alkyl-TPPs): 0.693 ± 0.0578 µM
- Activity compared to that of SMX ([1]; Table 1): 0.90
- IC50 [3, 9]: 0.314 ± 0.0578 µM
Compound: CCCCCCCCCC[P+](c1ccccc1)(c1ccccc1)c1ccccc1 [TPP-10, Decyltriphenylphosphonium]
- Activity compared to that of SMX ([3]; Table 6): 1.49

- IC50 ([1]; Table 1, alkyl-TPPs): 0.377 ± 0.0354 µM
- Activity compared to that of SMX ([1]; Table 1): 1.65
- binding capacity compared to that of SMX (MitoQ) ([1]; result in words): superior to that of SMX
- IC50 [3, 9]: 0.111 ± 0.0354 µM
Compound: CCCCCCCCCCCC[P+](c1ccccc1)(c1ccccc1)c1ccccc1 [TPP-12, Dodecyltriphenylphosphonium]
- Activity compared to that of SMX ([3]; Table 6): 4.21
